This note sets out measurements from publication PMC10578927, “An unconventional gatekeeper mutation sensitizes inositol hexakisphosphate kinases to an allosteric inhibitor” (eLife, 2023).

Common to all, as to assay type: biochemical
Test [1] has as its target T1, IP6K1^L210V (Homo sapiens, UniProt Q92551, L210V).
T1 construct: made in house; host or cells: E. coli Arctic Express
Description: High-throughput screen, reverse kinase reaction (5PP-InsP5 + ADP), Kinase-Glo luminescence. An excerpt:
Although the NMR assay described above provides direct product detection and the ability to distinguish the PP-InsP isomers ([Harmel et al., 2019]), it is inherently slow and thus not compatible with a high-throughput screen. The use of luminescence-based readouts of ATP consumption to measure IP6K activity is error-prone due to the kinase’s unusually low affinity for ATP, the sensitivity to the ATP/ADP ratio, and its inherent ATPase activity ([Wundenberg et al., 2014]; [Voglmaier et al., 1996]). Nevertheless, we were able to take advantage of these properties by examining the reverse reaction of IP6K1 with the Kinase-Glo assay, where 5PP-InsP5 and ADP are converted to InsP6 and ATP (Figure 3a).
The following solutions were prepared as 4× stock solutions: kinase buffer (HEPES pH 7.4, NaCl, BSA, MgCl2, Tween-20, DTT, and IP6K1^L210V), DMSO/inhibitor, ADP, and 5PP-InsP5. Final concentrations after optimization were 1 mM ADP, 20 mM HEPES, 50 mM NaCl, 0.2 mg/ml BSA, 2 mM MgCl2, 0.05% Tween-20, 1 mM DTT, 250 nM IP6K1^L210V, and 50 μM 5PP-InsP5. The reactions were carried out in 384-well plates following this procedure. 5 µl 4× kinase buffer (buffer only for no kinase controls), 5 µl 4× DMSO or inhibitor and 5 µl 4× ADP solution were subsequently added to all wells. After 10 min equilibration, 5 μl 4× 5PP-InsP5 were added to start the reaction (milli-Q water for negative controls). After 3 hr at room temperature, 20 µl of Promega Kinase-Glo Plus reagent were added and the luminescence read out with a Tecan Infinite M Plex reader using 100-ms exposure time after 10 min of equilibration.
ADP was prepared in a 2× stock solution in milli-Q water and the pH adjusted to 7.0. The following solutions were prepared as 4× stock solutions: kinase buffer (HEPES pH 7.4, NaCl, BSA, MgCl2, Tween-20, DTT, and IP6K1^L210V) and 5PP-InsP5. Final concentrations were 1 mM ADP, 20 mM HEPES, 50 mM NaCl, 0.2 mg/ml BSA, 2 mM MgCl2, 0.05% Tween-20, 1 mM DTT, 250 nM IP6K1^L210V, and 50 µM 5PP-InsP5. The reactions were carried out in 384-well plates following this procedure. 10 µl 2× ADP solution were added to all wells, then 0.2 µl DMSO or compound (1 mM in DMSO) were added followed by the addition of 5 µl 4× kinase buffer. For dose–response curves, compounds were added in serial dilution (twofold serial dilutions in DMSO across multiple plates prior to compound transfer to assay plates, 9 concentrations in total). After 10 min equilibration, 5 µl 4× 5PP-InsP5 were added to start the reaction (milli-Q water for negative controls). After 3 hr at room temperature, 20 µl of Promega Kinase-Glo Plus reagent were added and the luminescence read out with a Tecan Infinite M Plex or Perkin Elmer EnVision reader using 100ms exposure time after 10 min of equilibration. In the counter screen, dose–response curves were measured in the absence of kinase and presence of 50 µM ATP.

Test [2] concerns the target T1, IP6K1^L210V. Description: Michaelis–Menten and Lineweaver–Burk kinetics (NMR). The settings on record: versus ATP, two inhibitor concentrations. On the procedure:
Kinetic assays were performed in D2O in a total volume of 500 µl containing the same buffer components for IP6K and IP6KA constructs as stated for the NMR activity assays above. […] If applicable, inhibitor was added as a DMSO-d6 stock at a final DMSO concentration of 1%. Otherwise, DMSO-d6 was added to the same percentage. The samples were equilibrated at 37°C for 5 min and the reaction initiated by adding 100 µM [^13C6]-InsP6. The reaction time was adjusted so that conversion would not exceed 20% to remain in the linear range for initial velocity measurements. The reaction was quenched with 38 µl 700 mM EDTA pH* 8.0 and transferred into an NMR tube before being measured on a Bruker […] 600 PLUS with an NMR pulse program developed previously ([Harmel et al., 2019]). Initial velocities were calculated by dividing the amount of generated product by the product of reaction time in seconds and mass of the kinase in mg.

Test [3] addresses T2, IP6K1^wt (Homo sapiens, UniProt Q92551).
T2 construct: made in house; host or cells: E. coli Arctic Express
Description: High-throughput screen, reverse kinase reaction (5PP-InsP5 + ADP), Kinase-Glo luminescence. The settings on record: dose-dependent reconfirmation. On the technique in general: In Kinase-Glo more light means more ATP remaining.

Test [4] has as its target T2, IP6K1^wt. Description: NMR activity assay, [13C6]-InsP6 to 5PP-InsP5, with ATP-regenerating system. The following applies: 1 mM ATP, ATP-regenerating system. An excerpt: (§1) The gatekeeper mutants L210G and L210A of IP6K1 were generated by site-directed mutagenesis and the enzymes were recombinantly expressed, analogous to the WT kinase, as MBP-fusion proteins. To assess their catalytic activity, we used an NMR assay that harnesses fully ^13C-labeled InsP6 as a substrate and enables direct product readout of 5PP-InsP5 (Figure 2b and Figure 2—figure supplement 1; [Puschmann et al., 2019]; [Harmel et al., 2019]). […] Likewise, IP6K2 suffered a drastic decline in substrate turnover upon gatekeeper mutation to glycine (Figure 2—figure supplement 2).
(§2) The NMR assay for IP6K activity was performed similarly as described before ([Harmel et al., 2019]) with slight alterations. Enzyme assays were performed in D2O in a total volume of 150 µl containing 20 mM 4-(2-hydroxyethyl)-1-piperazineethanesulfonic acid (HEPES) pH* 6.8, 50 mM NaCl, 6 mM MgCl2, 1 mM ATP, 0.2 mg/ml BSA, 1 mM DTT, 5 mM creatine phosphate and 1 U/ml creatine kinase (ATP-regenerating system) and 50 nM kinase if not otherwise stated. HEPES, NaCl, and BSA were prepared as buffer A and DTT and creatine phosphate as buffer B in D2O and were adjusted to pH* 6.8, respectively. If applicable, inhibitor was added as a DMSO-d6 stock in a twofold dilution series at a final DMSO concentration of 1% if not otherwise mentioned. Otherwise, DMSO-d6 was added to the same percentage. The samples were equilibrated at 37°C for 3 min and the reaction initiated by adding 100 µM [^13C6]-InsP6.

The target of test [5] is T1, IP6K1^L210V. The description is as above.
Description: as §1, §2

SMILES strings stand for the structures.

T1 sequence (Q92551 whole entry L210V): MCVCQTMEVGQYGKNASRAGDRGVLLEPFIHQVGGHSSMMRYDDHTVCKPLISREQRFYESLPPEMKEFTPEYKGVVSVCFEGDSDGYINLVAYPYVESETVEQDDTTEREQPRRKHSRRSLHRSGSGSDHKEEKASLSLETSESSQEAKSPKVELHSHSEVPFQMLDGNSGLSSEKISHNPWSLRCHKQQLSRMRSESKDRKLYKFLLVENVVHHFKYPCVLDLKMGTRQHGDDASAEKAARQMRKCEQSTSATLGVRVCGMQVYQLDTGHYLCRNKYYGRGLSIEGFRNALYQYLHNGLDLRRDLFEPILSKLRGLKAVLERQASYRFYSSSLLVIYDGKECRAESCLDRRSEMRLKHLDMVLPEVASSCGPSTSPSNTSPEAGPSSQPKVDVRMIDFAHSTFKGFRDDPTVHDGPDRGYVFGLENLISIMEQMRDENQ
T2 sequence (Q92551 whole entry): as the sequence (Q92551 whole entry L210V) above, with V210L counted along it

In the case of `O=C(O)c1ccc2c(c1)C(=O)N(c1ccc(-c3nc4ccc(N5C(=O)c6ccc(C(=O)O)cc6C5=O)cc4[nH]3)cc1)C2=O` [FMP-201300], the IC50 (usually the concentration that inhibits the measured activity by half) on IP6K1^L210V [1] (Kinase-Glo, reverse reaction, dose-dependent reconfirmation) came out at 1600 nM; at IP6K1^wt [3], 17000 nM; on IP6K1^wt [4] it was 810 nM; on IP6K1^L210V [5] (100 μM InsP6), 75 nM; at IP6K1^L210V [5] (500 μM InsP6), 87 nM; against IP6K1^L210V [5] (NMR assay, 1 mM ATP, ATP-regenerating system), 114 nM. For the same molecule, the Z-score at IP6K1^L210V [1] (primary screen, IP6K1^L210V) is recorded as -24.0. On IP6K1^L210V [1] (primary screen, residual activity of IP6K1^L210V), the “%Activity” value is reported as 12.5%. On IP6K1^L210V [2], the “mechanism of inhibition (Lineweaver–Burk)” value is listed as “allosteric mechanism”. Also, the “difference in IC50 values measured at 100 and 500 µM InsP6” value on IP6K1^L210V [5] (IP6K1^L210V) is listed as “negligible”.
